How the values were obtained:
[1] = biological target: T1, endogenous phosphorylated LRRK2 (S935) (Homo sapiens, UniProt Q5S007); experiment: detection of endogenous phosphorylated LRRK2 (S935) in A549 cells (Western blot); assay type: cell-based; settings: 15 hours; for inhibition at 2 µM / inhibition at 1 µM: LRRK2 (S935) activity in A549 cells, read-out: Inhibition rate; for IC50: A549 cells, Table 11, read-out: IC50 of inhibitory activity on LRRK2 (S935) activity in A549 cells (column head: Inhibition rate)
T1 construct: Detection of endogenous phosphorylated LRRK2 (S935) in A549 cells; endogenous in cells; host or cells: A549
T1 sequence (Q5S007 whole entry): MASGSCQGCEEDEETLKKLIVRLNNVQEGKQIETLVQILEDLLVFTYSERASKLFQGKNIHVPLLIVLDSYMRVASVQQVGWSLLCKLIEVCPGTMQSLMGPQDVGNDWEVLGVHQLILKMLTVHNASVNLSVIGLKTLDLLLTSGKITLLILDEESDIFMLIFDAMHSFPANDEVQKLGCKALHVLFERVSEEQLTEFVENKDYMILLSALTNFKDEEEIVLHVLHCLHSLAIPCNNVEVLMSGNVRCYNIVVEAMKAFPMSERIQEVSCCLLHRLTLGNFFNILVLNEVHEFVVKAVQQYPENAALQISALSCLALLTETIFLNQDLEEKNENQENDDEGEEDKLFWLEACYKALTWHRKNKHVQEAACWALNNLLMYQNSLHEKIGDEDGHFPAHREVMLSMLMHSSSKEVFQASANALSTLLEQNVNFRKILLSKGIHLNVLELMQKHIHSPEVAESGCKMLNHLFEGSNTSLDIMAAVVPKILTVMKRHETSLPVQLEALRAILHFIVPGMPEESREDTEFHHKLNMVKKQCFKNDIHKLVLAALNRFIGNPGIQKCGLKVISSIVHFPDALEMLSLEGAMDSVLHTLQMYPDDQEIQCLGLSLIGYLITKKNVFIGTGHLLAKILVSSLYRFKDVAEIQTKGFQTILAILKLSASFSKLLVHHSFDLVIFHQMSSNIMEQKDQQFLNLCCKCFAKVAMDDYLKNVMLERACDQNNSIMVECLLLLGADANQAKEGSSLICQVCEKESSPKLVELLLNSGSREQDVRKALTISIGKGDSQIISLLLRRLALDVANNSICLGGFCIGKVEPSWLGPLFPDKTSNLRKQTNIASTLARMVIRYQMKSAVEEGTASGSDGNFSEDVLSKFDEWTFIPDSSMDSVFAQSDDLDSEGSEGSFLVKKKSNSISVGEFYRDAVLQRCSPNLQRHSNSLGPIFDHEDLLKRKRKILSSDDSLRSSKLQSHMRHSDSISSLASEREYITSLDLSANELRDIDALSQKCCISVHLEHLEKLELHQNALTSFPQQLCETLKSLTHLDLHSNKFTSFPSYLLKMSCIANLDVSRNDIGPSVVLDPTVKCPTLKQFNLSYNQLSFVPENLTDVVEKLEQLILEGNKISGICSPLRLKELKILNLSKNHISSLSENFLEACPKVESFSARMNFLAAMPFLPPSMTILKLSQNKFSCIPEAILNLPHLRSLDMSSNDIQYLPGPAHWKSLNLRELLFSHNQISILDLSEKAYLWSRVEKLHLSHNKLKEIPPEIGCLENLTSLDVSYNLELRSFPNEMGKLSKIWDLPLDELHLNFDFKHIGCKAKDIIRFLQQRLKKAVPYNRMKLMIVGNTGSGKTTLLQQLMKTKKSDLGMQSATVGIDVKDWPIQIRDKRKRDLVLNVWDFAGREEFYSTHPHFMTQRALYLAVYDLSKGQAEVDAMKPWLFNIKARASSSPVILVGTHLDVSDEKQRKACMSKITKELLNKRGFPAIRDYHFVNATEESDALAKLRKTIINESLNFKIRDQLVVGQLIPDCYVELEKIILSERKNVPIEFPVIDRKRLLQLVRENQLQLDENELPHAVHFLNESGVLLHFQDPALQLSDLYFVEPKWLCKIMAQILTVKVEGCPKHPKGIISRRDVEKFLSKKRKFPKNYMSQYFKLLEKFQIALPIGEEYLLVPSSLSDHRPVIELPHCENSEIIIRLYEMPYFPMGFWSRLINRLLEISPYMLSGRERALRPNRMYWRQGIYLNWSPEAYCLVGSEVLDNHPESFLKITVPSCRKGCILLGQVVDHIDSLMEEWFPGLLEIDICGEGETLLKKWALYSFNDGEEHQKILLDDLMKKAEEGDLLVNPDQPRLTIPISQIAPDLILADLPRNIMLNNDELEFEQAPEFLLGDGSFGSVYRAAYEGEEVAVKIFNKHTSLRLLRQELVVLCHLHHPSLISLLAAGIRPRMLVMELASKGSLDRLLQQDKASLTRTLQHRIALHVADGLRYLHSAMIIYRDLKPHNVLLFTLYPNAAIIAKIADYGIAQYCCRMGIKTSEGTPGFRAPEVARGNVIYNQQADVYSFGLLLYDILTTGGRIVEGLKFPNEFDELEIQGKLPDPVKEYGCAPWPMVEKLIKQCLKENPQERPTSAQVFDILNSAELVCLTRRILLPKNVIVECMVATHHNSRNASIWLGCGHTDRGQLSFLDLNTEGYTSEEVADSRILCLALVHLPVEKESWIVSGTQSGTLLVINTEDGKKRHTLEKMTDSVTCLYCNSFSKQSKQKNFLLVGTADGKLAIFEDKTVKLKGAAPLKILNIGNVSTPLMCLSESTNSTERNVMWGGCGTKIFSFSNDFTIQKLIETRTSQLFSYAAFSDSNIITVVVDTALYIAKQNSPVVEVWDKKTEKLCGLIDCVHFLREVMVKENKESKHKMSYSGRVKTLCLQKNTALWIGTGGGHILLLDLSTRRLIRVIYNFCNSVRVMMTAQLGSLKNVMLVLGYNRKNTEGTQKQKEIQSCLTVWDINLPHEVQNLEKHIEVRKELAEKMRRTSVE
Experimental: Detection of endogenous phosphorylated LRRK2 (S935) in A549 cells
A549 cells were resuspended in serum-free 1640 medium at a density of 1×10^6 cells/ml, and inoculated into a 6-well plate at 1 ml/well, and cultured at 37°C and 5% CO2 for 6-8 hours. 1 microliter of compound solution in DMSO or DMSO (volume ratio of 0.1%) was added, mixed evenly, and cultivated at 37°C and 5% CO2 for 15 hours. Cells were collected, 50 microliters of RIPA III lysis solution were added to each sample to lyse cells on ice for 15 minutes, centrifuged at 4°C and 13000 rpm for 30 minutes, the supernatant was collected, the protein concentration of cell lysis solution was measured by BCA, and the protein concentrations of all samples were normalized. 5×sample loading buffer were added and kept at 95°C for 10 minutes. The content of phosphorylated S935 of endogenous LRRK2 was detected by Western blot, using antibody against phosphorylated LRRK2 (S935) (Abcam#133450). The signal intensity of phosphorylated LRRK2 (S935) was counted by Image J, the signal of phosphorylated LRRK2 (S935) in a sample was normalized by β-actin, and the data was analyzed.

LRRK2 = LRRK2 (Homo sapiens, UniProt Q5S007); experiment: experiment of inhibiting LRRK2 kinase activity (ADP-Glo method); assay type: biochemical; settings: Table 4
LRRK2, sequence (Q5S007 whole entry): as above
Experimental: The inhibitory effect of the compounds on the activity of LRRK2 kinase was detected by ADP-Glo method. The diluted solutions of the compounds were transfered to a 384-well plate (784075, Greiner), the plate was sealed and centrifuged at a speed of 1000 g for 1 minute. A kinase solution at 2-fold final concentration was prepared with 1×kinase buffer, 2.5 µl of the kinase solution with 2-fold final concentration was added to the wells, the plate was centrifuged at 1000 g for 30 seconds, and left at room temperature for 10 minutes. A mixed solution of ATP and kinase substrate at 2-fold final concentration was prepared with 1×kinase buffer, and 2.5 µL of mixed solution of ATP and substrate at 2-fold final concentration was added to start the reaction. The plate was centrifuged at 1000 g for 30 seconds, sealed and left at room temperature for 2 hours. 4 µL of ADP-Glo reagent was added and incubated at room temperature for 40 minutes; 8 µL kinase detection reagent was added and incubated at room temperature for another 40 minutes. The luminescence signal value was detected on Envision 2104 microplate reader. The conversion inhibition rate%=100-(compound signal value-positive control signal value)/(blank control signal value-positive control signal value)×100.
The IC50 was calculated with GraphPad 6.0 and the dose-responsive curve of the compounds was plotted as follows: y=Bottom+(Top-Bottom)/(1+10^((logic50-x)×hillslope)), where x was logarithm of inhibitor concentration; and y was % inhibition rate.

SMILES	inhibition at 2 µM [1]	IC50 [1]	IC50 (LRRK2)	inhibition at 1 µM [1]
CN1CCOc2ccc(Nc3ncc(C(F)(F)F)c(NCC(C)(C)O)n3)cc2OCC1 [Example 8, 2-methyl-1-((2-((4-methyl-3,4,5,6-tetrahydro-2H-benzo[b][1,4,7]dioxazolin-9-yl)amino)-5-(trifluoromethyl)pyrimidin-4-yl)amino)propan-2-ol]	> 80%	–	–	–
CN1CCOCCOc2ccc(Nc3ncc(C(F)(F)F)c(NC[C@@H]4CCO4)n3)cc2OCC1 [Example 88, (S)-N^2-(7-methyl-2,3,6,7,8,9-hexahydro-5H-benzo[b][1,4,7]trioxa[10]azacyclododecan-12-yl)-N^4-(oxetan-2-ylmethyl)-5-(trifluoromethyl)pyrimidin-2,4-diamine]	> 80%	–	–	–
CN1CCOCCOc2ccc(Nc3ncc(C(F)(F)F)c(NCCS(C)(=O)=O)n3)cc2OCC1 [Example 89, N^2-(7-methyl-2,3,6,7,8,9-hexahydro-5H-benzo[b][1,4,7]trioxa[10]azacyclododecyl-12-yl)-N^4-(2-(methylsulfonyl)ethyl)-5-(trifluoromethyl)pyrimidin-2,4-diamine]	40 to 79%	–	–	–
CN1CCOCCOc2ccc(Nc3nc(NCC(C)(C)O)c4cc[nH]c4n3)cc2OCC1 [Example 90, 2-methyl-1-((2-((7-methyl-2,3,6,7,8,9-hexahydro-5H-benzo[b][1,4,7]trioxa[10]azacyclododecan-12-yl)amino)-7H-pyrrolo[2,3-d]pyrimidin-4-yl)amino)propan-2-ol]	> 80%	–	–	–
CN1CCOc2ccc(Nc3ncc(C(F)(F)F)c(Nc4ccccc4)n3)cc2OCC1 [Example 91, N^2-(4-methyl-3,4,5,6-tetrahydro-2H-benzo[b][1,4,7]dioxazolin-9-yl)-N^4-phenyl-5-(trifluoromethyl)pyrimidin-2,4-diamine]	–	< 100 nM	< 100 nM	–
CN1CCOc2ccc(Nc3ncc(C(F)(F)F)c(NC[C@@H]4CCO4)n3)cc2OCC1 [Example 92, (S)-N^2-(4-methyl-3,4,5,6-tetrahydro-2H-benzo[b][1,4,7]dioxazolin-9-yl)-N^4-(oxetan-2-ylmethyl)-5-(trifluoromethyl)pyrimidin-2,4-diamine]	40 to 79%	–	< 100 nM	–
CN1CCOc2ccc(Nc3ncc(C(F)(F)F)c(O[C@H]4CC[C@@](C)(O)CC4)n3)cc2OCC1 [Example 93, (1s,4s)-1-methyl-4-((2-((4-methyl-3,4,5,6-tetrahydro-2H-benzo[b][1,4,7]dioxazolin-9-yl)amino)-5-(trifluoromethyl)pyrimidin-4-yl)oxy)cyclohexan-1-ol]	–	100 to 500 nM	< 100 nM	–
COCc1ccccc1Nc1nc(Nc2ccc3c(c2)OCCN(C)CCO3)ncc1C(F)(F)F [Example 94, N^4-(2-(methoxymethyl)phenyl)-N^2-(4-methyl-3,4,5,6-tetrahydro-2H-benzo[b][1,4,7]dioxazolin-9-yl)-5-(trifluoromethyl)pyrimidin-2,4-diamine]	–	–	–	> 0%
CN1CCOc2ccc(Nc3ncc(C(F)(F)F)c(NCC4(C#N)CC4)n3)cc2OCC1 [Example 96, 1-(((2-((4-methyl-3,4,5,6-tetrahydro-2H-benzo[b][1,4,7]dioxazolin-9-yl)amino)-5-(trifluoromethyl)pyrimidin-4-yl)amino)methyl)cyclopropan-1-carbonitrile]	–	–	–	> 0%
CN1CCOc2ccc(Nc3ncc(F)c(O[C@H]4CC[C@@](C)(O)CC4)n3)cc2OCC1 [Example 100, (1s,4s)-4-((5-fluoro-2-((4-methyl-3,4,5,6-tetrahydro-2H-benzo[b][1,4,7]dioxazolin-9-yl)amino)pyrimidin-4-yl)oxy)-1-methylcyclohexan-1-ol]	–	–	100 to 500 nM	40 to 79%
Cc1cnc(Nc2ccc3c(c2)OCCN(C)CCO3)nc1O[C@H]1CC[C@@](C)(O)CC1 [Example 101, (1s,4s)-1-methyl-4-((5-methyl-2-((4-methyl-3,4,5,6-tetrahydro-2H-benzo[b][1,4,7]dioxazolin-9-yl)amino)pyrimidin-4-yl)oxy)cyclohexan-1-ol]	–	–	–	40 to 79%
CN1CCOc2ccc(Nc3ncc(Cl)c(O[C@H]4CC[C@@](C)(O)CC4)n3)cc2OCC1 [Example 102, (1s,4s)-4-((5-chloro-2-((4-methyl-3,4,5,6-tetrahydro-2H-benzo[b][1,4,7]dioxazolin-9-yl)amino)pyrimidin-4-yl)oxy)-1-methylcyclohexan-1-ol]	–	–	< 100 nM	> 0%
CN1CCOCCOc2ccc(Nc3ncc(F)c(O[C@H]4CC[C@@](C)(O)CC4)n3)cc2OCC1 [Example 103, (1s,4s)-4-((5-fluoro-2-((7-methyl-2,3,6,7,8,9-hexahydro-5H-benzo[b][1,4,7]trioxa[10]azacyclododecan-12-yl)amino)pyrimidin-4-yl)oxy)-1-methylcyclohexan-1-ol]	–	< 100 nM	100 to 500 nM	–
COCc1ccccc1Nc1nc(Nc2ccc3c(c2)OCCN(C)CCOCCO3)ncc1C(F)(F)F [Example 116, N^4-(2-(methoxymethyl)phenyl)-N^2-(7-methyl-2,3,6,7,8,9-hexahydro-5H-benzo[b][1,4,7]trioxa[10]azacyclododecan-12-yl)-5-(trifluoromethyl)pyrimidin-2,4-diamine]	–	–	< 100 nM	–

Reference: EP4592286A1, “MACROCYCLIC NITROGEN-CONTAINING CROWN ETHER COMPOUND AND USE THEREOF AS PROTEIN KINASE INHIBITOR” (Artivila Biopharma, priority 2022, dated 2024)
